PubChem BioAssay (NCI)
Several values for one entry are separate records, joined by “and”; a condition that tells them apart may be missing. Equal values may be shown once.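 Exposure lasted 48 hours, with cells grown in 96-well plates and compounds tested at five concentrations. GI50 is the concentration that inhibits growth by half. Definition used: TGI = concentration required for complete inhibition of growth.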

Tests used:
Assay in all cases: NCI tumour cell line growth inhibition, 48 h
DMS 114 small cell lung = tested on: DMS 114 small cell lung
HL-60(TB) leukemia = tested on: HL-60(TB) leukemia
LXFL 529 NSCLC = tested on: LXFL 529 NSCLC
NCI-H460 lung = tested on: NCI-H460 lung
SK-MEL-2 melanoma = tested on: SK-MEL-2 melanoma
SNB-75 CNS = tested on: SNB-75 CNS
TK-10 renal = tested on: TK-10 renal
HS 578T breast = tested on: HS 578T breast
MCF7 breast = tested on: MCF7 breast
T-47D breast = tested on: T-47D breast

Structure (SMILES) | TGI (DMS 114 small cell lung) | TGI (HL-60(TB) leukemia) | TGI (LXFL 529 NSCLC) | TGI (NCI-H460 lung) | TGI (SK-MEL-2 melanoma) [µM] | TGI (SNB-75 CNS) | TGI (TK-10 renal) | GI50 (DMS 114 small cell lung) | GI50 (HL-60(TB) leukemia) | GI50 (SNB-75 CNS) | TGI (HS 578T breast) [µM] | TGI (MCF7 breast) [µM] | GI50 (NCI-H460 lung) [µM] | TGI (T-47D breast) [µM] | GI50 (TK-10 renal) [µM] | GI50 (LXFL 529 NSCLC) [µM] | GI50 (SK-MEL-2 melanoma) [µM] | GI50 (HS 578T breast) [µM] | GI50 (MCF7 breast) [µM] | GI50 (T-47D breast) [µM]
CC(/C=C/C(=O)c1sc(C(N)=S)nc1C)=C\c1ccccc1 | 35 µM | > 100 µM | > 100 µM | > 100 µM | > 100 | > 100 µM | > 100 µM |  |  |  |  |  |  |  |  |  |  |  |  | 
O=C1C(Cl)=C(Cl)C(=O)N1c1ccc(Cl)c(Cl)c1Cl | > 100 µM | 46.2 µM | 88 µM | > 100 µM | > 100 | > 100 µM | > 100 µM |  |  |  |  |  |  |  |  |  |  |  |  | 
COC(=O)/C(C#N)=C1\CCC(OC)N1C (stereo not drawn) | > 100 µM | > 100 µM | > 100 µM | > 100 µM | > 100 | > 100 µM | > 100 µM |  |  |  |  |  |  |  |  |  |  |  |  | 
Cc1ccc(SSCC(O)C(O)CSSc2ccc(C)cc2)cc1 (stereo not drawn) | 5.14 µM and 20.4 µM | 3.1 µM and 25.6 µM | 19 µM and 22.9 µM | 32.2 µM and 36.3 µM | 20.5 | 22.2 µM and 31.8 µM | 35.2 µM and 27.7 µM | 2.07 µM and 7.05 µM | 1.01 µM and 4.6 µM | 5.97 µM and 16.2 µM |  |  |  |  |  |  |  |  |  | 
Cc1ccc2oc(=O)c3c(O)c4cccc(OC5OC(C)C6O[C@@H](c7ccccc7)OC6C5OC5OC(C)C(O)C(O)C5O)c4c4oc(=O)c1c2c34 (stereo partly drawn) | 3.16 µM | 0.7 µM and 0.361 µM | 6.5 µM | 1.03 µM and 0.545 µM | 1.68 | 1.54 µM | 3.81 µM and 8.95 µM |  | 0.0418 µM |  | 1.97 | 2.48 | 0.00467 | 1.23 | 0.461 |  |  |  |  | 
COc1cc2c(cc1OC)C(C(CBr)CBr)N(C1CCCC1)CC2 (stereo not drawn) |  | > 100 µM | > 100 µM | > 100 µM | > 100 | > 100 µM | > 100 µM |  |  |  |  |  |  |  |  |  |  |  |  | 
CCCCCCC(=O)C/C(CCC(=O)N(Cc1ccccc1)Cc1ccccc1)=N\NC(N)=O | > 100 µM | > 100 µM | > 100 µM | > 100 µM | > 100 | > 100 µM | > 100 µM |  |  |  |  |  |  |  |  |  |  |  |  | 
Cc1ccc(N2C(=O)/C(=C/c3ccc(N(CCC#N)CCC#N)cc3)N=C2COc2ccc(Cl)cc2Cl)cc1 | > 100 µM | > 100 µM | > 100 µM | > 100 µM | > 100 | > 100 µM | > 100 µM |  |  |  |  |  |  |  |  |  |  |  |  | 
O=c1c2ccccc2oc2ccccc12 (tested in a mixture with another compound) | 5.08 µM | > 100 µM | > 100 µM | 25.9 µM |  | 7.58 µM |  |  |  |  |  |  |  |  |  |  |  |  |  | 
CN1CCN=C1c1nnn(-c2ccc([N+](=O)[O-])cc2)c1-c1ccccc1 | > 100 µM | 61.4 µM | > 100 µM | > 100 µM | > 100 | > 100 µM | > 100 µM |  |  |  |  |  |  |  |  |  |  |  |  | 
C=CCC12CC(=O)CCC1c1ccc(OC)cc1C2=O (stereo not drawn) | > 100 µM | > 100 µM | > 100 µM | > 100 µM | > 100 | > 100 µM | > 100 µM |  |  |  |  |  |  |  |  |  |  |  |  | 
Cc1ccccc1-n1c(=S)[nH]c2c(sc(=O)n2-c2ccccc2C)c1=O | > 100 µM | > 100 µM | > 100 µM | > 100 µM | > 100 | > 100 µM |  |  |  |  |  |  |  |  |  |  |  |  |  | 
O=c1cc[nH]cc1-c1c[nH]ccc1=O | > 100 µM | > 100 µM | > 100 µM | > 100 µM |  | > 100 µM | > 100 µM |  |  |  |  |  |  |  |  |  |  |  |  | 
CCC1CCCCN1CC(C(C)=O)C(c1ccccc1)c1c(O)c2ccccc2oc1=O (stereo not drawn) | > 100 µM | > 100 µM |  | > 100 µM | > 100 | > 100 µM | > 100 µM |  |  |  |  |  |  |  |  |  |  |  |  | 
CS(=O)(=O)c1ccc(COP(N)(=O)N(CCCl)CCCl)cc1 (stereo not drawn) | > 100 µM |  | > 100 µM | > 100 µM | > 100 | > 100 µM | > 100 µM |  |  |  |  |  |  |  |  |  |  |  |  | 
COc1ccc(Br)c(CN2CCc3ccccc32)c1OS(=O)(=O)c1ccc(C)cc1 | 53.5 µM | > 100 µM |  |  | > 100 | 88.8 µM |  |  |  |  |  |  |  |  |  |  |  |  |  | 
COc1ccc(-c2cc3ccccc3[nH]c2=O)cc1OC |  | > 100 µM | > 100 µM | > 100 µM | > 100 | > 100 µM | > 100 µM |  |  |  |  |  |  |  |  |  |  |  |  | 
O=C1CC(C2(O)C(=O)Nc3ccc([N+](=O)[O-])cc32)c2ccccc21 (stereo not drawn) | 23.9 µM | 45.3 µM | 76.2 µM | 29.9 µM | 36.5 | > 100 µM | > 100 µM |  |  |  |  |  |  |  |  |  |  |  |  | 
CN1CCC(c2c(O)cc(O)c3c(=O)cc(-c4ccccc4Cl)oc23)C(O)C1 (stereo not drawn) | 0.393 µM |  |  | > 100 µM |  | 0.18 µM | > 100 µM |  |  | 0.0482 µM |  |  |  |  |  |  |  |  |  | 
CC1=NN(c2ccccc2)C(=O)C12[C@H](c1ccccc1)C2(C#N)C#N (stereo partly drawn) |  | 7.81 µM | 3.89 µM | 41.5 µM | 16.7 | 19.3 µM | 25 µM |  |  |  |  |  |  |  |  |  |  |  |  | 
COc1cc(Cc2c(C)cc(OC)c3[nH]c4ccccc4c23)cc2c1[nH]c1ccccc12 | > 25 µM | > 25 µM | 22.4 µM | 12.1 µM | 11.6 |  | > 25 µM |  | 7.95 µM |  |  |  | 5.13 |  | 12 | 4.13 | 3.97 |  |  | 
CCOC(=O)c1sc2c(C(=O)OCC)n3cc(C)cc(C)c3c2c1O | > 100 µM |  | > 100 µM | > 100 µM | > 100 | > 100 µM | > 100 µM |  |  |  |  |  |  |  |  |  |  |  |  | 
O=C(O)c1c2c(cc3c(=O)c4ccccc4[nH]c13)CCCC2 |  | > 100 µM | > 100 µM | > 100 µM | > 100 | > 100 µM | > 100 µM |  |  |  |  |  |  |  |  |  |  |  |  | 
CC1=C(CO)C(=O)O[C@@H]([C@@H](C)[C@H]2CC[C@H]3[C@@H]4C[C@H]5O[C@]56[C@@H](O)C=CC(=O)[C@]6(C)[C@H]4CC[C@]23C)C1 | 1.95 µM | 0.821 µM | 1.26 µM | 5.11 µM | 1.93 | 3.25 µM | 1.99 µM |  |  |  | > 100 | 2.43 |  | 2.5 |  |  |  | 0.402 | 0.345 | 0.5
CC(=O)OCC1OC(n2c(=O)[nH]c(=O)c3n[nH]nc32)C(OC(C)=O)C(OC(C)=O)C1OC(C)=O (stereo not drawn) | > 100 µM | > 100 µM | > 100 µM | > 100 µM | > 100 |  | > 100 µM |  |  |  |  |  |  |  |  |  |  |  |  | 
Cc1cc(=O)[nH]c(NNC(C#N)c2ccccc2O)n1 (stereo not drawn) | 60.9 µM | 50.5 µM |  | > 100 µM | > 100 | > 100 µM | > 100 µM |  |  |  |  |  |  |  |  |  |  |  |  | 
Cc1cc(Cl)cc2c1NC(=O)C2(O)CC(=O)c1ccc(Br)cc1 (stereo not drawn) | > 100 µM | 48.2 µM | > 100 µM | > 100 µM | > 100 | > 100 µM | > 100 µM |  |  |  |  |  |  |  |  |  |  |  |  | 
CC(C)N(C(=O)C12C3C4C5(C(=O)O)C(C1C35I)C42C(=O)O)C(C)C (stereo not drawn) | > 100 µM | > 100 µM | > 100 µM | > 100 µM |  | > 100 µM | > 100 µM |  |  |  |  |  |  |  |  |  |  |  |  | 
Brc1cc(C2OCCCO2)ccc1OCc1ccccc1 | > 100 µM | > 100 µM | > 100 µM | > 100 µM | > 100 | > 100 µM | > 100 µM |  |  |  |  |  |  |  |  |  |  |  |  | 
